The values below come from article PMC10606064, “2-Aminothiazole-Flavonoid Hybrid Derivatives Binding to Tau Protein and Responsible for Antitumor Activity in Glioblastoma” (International Journal of Molecular Sciences, 2023).

One experiment relates to U87 shTau cells. The experiment in a line: Mitotic index by high-content imaging, U87 shTau. The experiment is classed as cell-based, human. The following applies: 48 h, 5-times IC50 of compounds. How it is done: For scoring mitotic indexes, an automated high-content screening confocal microscopy approach was employed to identify cells undergoing mitosis from a large population of cells. For this, cells nuclei were stained with DAPI. Briefly, fibronectin-coated clear-glass-bottom black 96-well imaging plates were seeded with 100 µL of cell suspension (60,000 cell.mL^−1) in each well, with both U87 shCTRL and U87 ShTau cell lines. Cells were treated with 5-times IC50 of compounds for 48 h, then they were fixated inside the palates with 4% formaldehyde (in PBS pH 7.4) for 20 min at room temperature, permeabilized with PBS-Triton X-100 0.5% for 10 min at room temperature. DNA was then stained with DAPI (10 µg.mL^−1) for 5 min at room temperature and in the darkness. After being washed, cells were kept in PBS at 4 °C and imaged while in PBS. Automated confocal microscopy was carried out using an Opera Phenix (PerkinElmer) high-content screening microscope using a 20× Air/0.4 NA air objective. For each condition, 6 wells were prepared and a total of 61 fields were acquired for each well. Image analysis was performed using Harmony high-content analysis v4.8 software and PhenoLOGIC Machine Learning technology, which uses a learn-by-example approach. As a first step, nuclei were segmented and multiple parameters for these nuclei were calculated using Harmony v4.8 software building blocks. After training, PhenoLOGIC Machine Learning then selects the best parameters to detect nuclei undergoing the M phase of mitosis. From this, the mitotic index of each condition was calculated by dividing the number of cells undergoing mitosis over the total number of cells.

The test system of experiment [1] is U87 shCTRL and U87 shTau cells. Kind of experiment: Acridine orange spectrofluorometry (late autophagy). The format is cell-based, human. The following applies: both cell types, 5 µM, 48 h. How it is done:
Briefly, 2.10^5 cells in exponential growth were seeded in 6-well plates. After 24 h, they were treated with 5 µM of compounds for 48 h. Trypsinized cells were harvested, counted, and then centrifuged (1200 rpm, 5 min, at RT). The cells pellet was resuspended in 2 mL of acridine orange diluted in complete culture media to a final concentration of 1 µg/mL and incubated for 15 min in the dark. Cells were then collected by centrifugation (1200 rpm, 5 min, at RT). The cells pellet was resuspended in PBS to a suspension concentration of 2.10^5 cells/mL. The suspension was transferred to a quartz cuvette, and then fluorescence emission of acridine orange was measured with a FluoroMax-3 spectrofluorometer (Horiba Jobin Yvon, Palaisseau, France) (excitation at 490 nm).

The test system of experiment [2] is SK-N-SH neuroblastoma cells. Kind of experiment: MTT cell viability assay, SK-N-SH. As to conditions: Homo sapiens, 72 h, mean ± SEM, read-out: IC50 (metabolic activity). The experiment is classed as cell-based. How it is done:
Cells harvested from sub-confluent monolayers were seeded at 15,000 cells per mL in a 96-well microtiter plate (Cambridge Technology, Labège, France) and cultured for 24 h under standard conditions. Standard medium was then replaced by fresh medium containing no drugs or compounds at different concentrations. The surviving cells were quantified after 72 h by the MTT assay, according to the manufacturer’s instructions. Briefly, 20 µL of 3-(4,5-diMethylThiazol-2-yl)-2,5diphenyl Tetrazolium bromide (MTT) solution at 5 mg.mL^−1 was added to cells for 3 h at 37 °C. The supernatant was discarded and replaced by 100 µL of dimethyl sulfoxide to dissolve formazan crystals. The absorbance was then read at 600 nm by spectrophotometry. For all concentrations of a given compound, cell viability was expressed as the percentage of the ratio between the mean absorbance of treated cells and the mean absorbance of untreated cells. Three independent experiments were performed, and the data were expressed as percentage of survival (using the untreated cells as 100%) and subjected to statistical analysis (n = 3). The IC50 was calculated using the Chou and Talalay method.

Experiment [3] addresses T1, Tau protein (full-length human Tau, hTau40) (Homo sapiens, UniProt P10636).
T1 construct: The full-length human Tau (hTau40) was expressed in a transformed E. coli BL21 (DE3) strain; made in house; host or cells: E. coli BL21 (DE3)
The experiment in a line: Tau intrinsic fluorescence quenching, modified Stern–Volmer binding parameters. As to conditions: 5 µM Tau, buffer B pH 6.8, mean ± SD; for Kd: read-out: Equilibrium Binding Constants to Tau, KD. How it is done:
Fluorescence measurements were performed with a Horiba Jobin Yvon FluoroMax-3 spectrofluorometer. […] For experiments, the excitation wavelength was fixed at 275 nm, and the emission spectra were recorded between 280 nm and 500 nm at room temperature. The inner filter effects were corrected according to Lakowicz as follows:F = Fobs × exp{(Aem + Aex)/2}(2) where Fobs and F are the observed and corrected fluorescence values at the emission wavelength of 303 nm. Aex and Aem are the absorptions at the excitation and emission wavelengths, respectively, calculated with A = ε.l.C, in which ε is the extinction coefficient of Tau, l is the path length of cuvette, and C is Tau concentration.
The total fluorescence in the absence of quencher (F0) is given by:F0 = F0a + F0b(4) where 0 refers to the fluorescence intensity in the absence of quencher.
In the presence of quencher, we defined fa as the fraction of the initial fluorescence of Tau accessible to compounds:fa = F0a/(F0a + F0b)(5)
Therefore, the intensity of the accessible fraction (fa) is decreased according to the Stern–Volmer equation, whereas the buried fraction is not quenched, as given by:F = {F0a/(1 + K.[Q])} + F0b(6)
Then, subtraction of Equations (6) and (4) yields:ΔF = F0 − F = F0a × {K.[Q]/(1 + K.[Q])}(7)
At last, inversion of Equation (7) followed by division into Equation (4) yields:F0/ΔF = {1/(fa.K.[Q])} + 1/fa(8)
We applied this modified form of the Stern–Volmer equation to graphically determine the values of fa and K. For our experiments, we plotted F0/ΔF against 1/[Q], then we determined the fa value at the point of intersection with the y-axis, while the slope represented (faK)^−1.

Where only a bound is given, the exact number is not on record here.

T1 sequence (P10636 1-441 isoform P10636-8): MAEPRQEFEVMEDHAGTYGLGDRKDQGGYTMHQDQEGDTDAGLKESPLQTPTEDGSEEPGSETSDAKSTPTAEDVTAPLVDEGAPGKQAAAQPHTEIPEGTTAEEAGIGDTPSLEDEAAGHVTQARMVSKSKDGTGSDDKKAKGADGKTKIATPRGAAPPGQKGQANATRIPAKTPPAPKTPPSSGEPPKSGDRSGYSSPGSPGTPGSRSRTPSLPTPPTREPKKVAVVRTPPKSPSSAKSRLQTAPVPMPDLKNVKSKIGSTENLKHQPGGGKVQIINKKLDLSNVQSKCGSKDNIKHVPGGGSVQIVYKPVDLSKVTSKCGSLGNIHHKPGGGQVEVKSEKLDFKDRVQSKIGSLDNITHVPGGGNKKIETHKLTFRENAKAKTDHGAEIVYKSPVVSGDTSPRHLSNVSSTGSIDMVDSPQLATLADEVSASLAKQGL

For `Nc1nc2ccc3oc(C(=O)O)cc(=O)c3c2s1` [Compound 5], in the experiment on U87 shTau cells, the mitotic index is on record as 3 ± 0.39%. Besides, the “acridine orange fluorescence emission” value in experiment [1] is “shift to blue emission”. For the same molecule, the IC50 in experiment [2] is > 100 µM. In experiment [3], the “Equilibrium Binding Constants to Tau, fA (Tyr accessible fraction)” value was 0.38 ± 0.01 and the Kd amounted to 6.4 ± 1.5 µM.
Consider `Nc1nc2ccc3oc(-c4cccc(Oc5ccccc5)c4)cc(=O)c3c2s1` [Compound 2, 2-amino-7-(3-phenoxyphenyl)-9H-chromeno [6,5-d]thiazol-9-one], for which, in the experiment on U87 shTau cells, the mitotic index result is reported as “no significant variation of mitotic indexes”. Besides, the “acridine orange fluorescence emission” value in experiment [1] is recorded as “shift to blue emission”. The IC50 in experiment [2] came to 1.2 ± 0.3 µM. In experiment [3], the “Equilibrium Binding Constants to Tau, fA (Tyr accessible fraction)” value is on record as 0.14 ± 0.10 and the Kd was found to be 4.7 ± 1.8 µM.
